Calls of active or inactive are those of the source.
Columns and labels:
Format in all cases: functional, organism-based
Aspergillus flavus = experiment: Antifungal activity against Aspergillus flavus NRRL 6541 at 200 ug/disk by standard disk assay
Fusarium verticillioides = experiment: Antifungal activity against Fusarium verticillioides NRRL 25457 at 200 ug/disk by standard disk assay
Staphylococcus aureus = experiment: Antibacterial activity against Staphylococcus aureus ATCC 29213
Escherichia coli = experiment: Antibacterial activity against Escherichia coli ATCC 25922
Bacillus subtilis = experiment: Antibacterial activity against Bacillus subtilis ATCC 6051

Measured: Activity

C[C@H]1CCC[C@@H](O)/C=C\[C@H](O)/C=C/C(=O)O1
inactive: Aspergillus flavus | Fusarium verticillioides | Staphylococcus aureus | Escherichia coli | Bacillus subtilis

Source: ChEMBL document CHEMBL1157323, “Chloriolide, a 12-membered macrolide from Chloridium virescens var. chlamydosporum (NRRL 37636)” (J Nat Prod, 2006)
